These are literature values, as cited in paper PMC11439047 (Nature Communications, 2024).

The subject of this series is P2X1 receptor. Conditions: cited from earlier work.

As for `O=C(O)c1cc(C(=O)O)c(C(=O)N(Cc2cccc(Oc3ccccc3)c2)[C@H]2CCCc3ccccc32)cc1C(=O)O` [A-317491], the “activity for the P2X1 receptor” value was “weak activity”.
